The source of these data is EP4455142A1, “NOVEL INHIBITOR OF QPCTL AND/OR QC” (Scenic Immunology B.V., priority 2023, dated 2024).

Data set [1] can be described thus: Microsomal stability, human (HLM). The data set is classed as in vitro ADME. To be noted: liver microsomes, 0.5 mg protein/mL, 1 µM test compound. Here is the method: (§1) In order to assess metabolic stability of test compounds, commercially acquired CD-1 mouse liver microsome preparations were incubated in 100 µL at a final concentration of 0.5 mg protein/mL, 1 µM test compound, 0.99% methanol and 0.01% DMSO, after a 10 minute pre-incubation at 37°C and addition of 0.1 volumes 10 U/mL NADPH in 10 mM MgCl2. Reactions were stopped by addition of 300 µL cold acetonitrile containing internal standards at t = 0, 5, 10, 20, 30, and 60 minutes. Samples were submitted to LC-MS/MS analysis subsequently and the slope of linear regression of time versus In(% Remaining concentration) was derived to calculate t½ as t½= In(2) /(-Slope). Then Clint(mic) and Clint(liver) were calculated as follows: CLint(mk) = (0.693)/(In vitro T1/2) · (1)/(mg/mL microsomal protein in reaction system) [formula] CLint(liver) = CLint(mic) · (mg microsomes)/(g liver) · (g liver)/(kg body weight) [formula]
The same procedure was performed for human microsomes, SD rat microsomes and (beagle) dog microsomes.
Where 45 mg microsomal protein/g liver and 20 g liver/kg human bodyweight were used as standardized parameters for human microsomes.
(In general: Microsomes from liver hold many membrane-bound enzymes, among them those of drug oxidation.)

The nature of data set [2]: CACO-2-based cell-permeation and efflux. The data set is classed as in vitro ADME. The conditions noted are these: human, 2 µM compound, pH 7.40; for Papp A→B at 2 h, 2 µM: Caco-2, pH 7.4, A2B; for Papp B→A at 2 h, 2 µM: Caco-2, pH 7.4, B2A. Here is the method:
CACO-2 (ATCC, Manassas, VA, USA) monolayers on polyethylene membranes in 96-well insert plates were incubated for 2 hours in 5% C02, 37°C with 2 µM compound tested bidirectionally in duplicate using HBSS with 10 mM HEPES at pH 7.40 ±0.05 as transport buffer. Final DMSO Concentrations were adjusted to less than 1%. All samples were mixed with acetonitrile containing internal standard and centrifuged at 3220 x g for 10 minutes. Subsequently, 100 µL supernatant solution was diluted with 100 µL distilled water for LC/MS/MS analysis. Lucifer yellow rejection assays were applied after the transport assay to ensure CACO-2 cell monolayer integrity.
The apparent permeability coefficient Papp (cm/s) was calculated using the equation: Papp = (dCr/dt) × Vr/(A×CO) [formula] where dCr/dt is the cumulative concentration of compound in the receiver chamber as a function of time (µM/s); Vr is the solution volume in the receiver chamber (0.075 mL on the apical side, 0.25 mL on the basolateral side); A is the surface area for the transport, i.e., 0.0804 cm^2 or the area of the monolayer; CO is the initial concentration in the donor chamber (µM).
A general note: Caco-2 cells form a polarised layer with tight junctions and transporters.

Data set [3] in a line: Microsomal stability, mouse (MLM). Type of data set: in vitro ADME, CD-1 mouse. The conditions noted are these: mouse liver microsomes, 0.5 mg protein/mL, 1 µM test compound. On the procedure:
as §1
Where 45 mg microsomal protein/g liver and 88 g liver/kg mouse bodyweight were used as standardized parameters for mouse microsomes.

A further data set relates to pyroglutamylated CD47. In words: Assay 3 - cell-based potency assay (pyroglutamylation in live cells, total CD47/pE-CD47 dual staining, FACS). The conditions noted are these: IC50 of CC2C6 signal, KBM7 cells, 72 hours incubation. Further details: species or system human. Here is the method: Cells were spun for 4 minutes at 1500 rpm and washed once with PBS / 0.5% BSA. Cells were spun down again and the supernatant was removed and incubated in 100 uL antibody staining solution (PBS / 0.5% BSA / 0.1 µg/mL DAPI (4',6-diamidino-2-phenylindole, ThermoFisher Scientific) and a mixture of 1:500 FITC-conjugated anti-human CD47 clone 2D3, which recognizes total CD47 irrespective of its pyroglutamylation state, and 1:500 Alexa647-conjugated anti-human CD47 clone CC2C6, which specifically detects pyroglutamylated CD47) for 2 hours at 4°C. Next, the cells were spun down and washed twice with 2 x 150 µL PBS / 0.5% BSA to remove unbound antibody. Cells were again spun down and taken up in 300 µL FACS buffer before analysis on a Celesta FACS machine (BD Biosciences).
KBM7 cells (Kotecki et al., 1999) were infected with lentivirus produced by transfecting pSCNC-LentiCRISPR-QPCTL or pSCNC-LentiCRISPR-CD47 into HEK-293T cells according to standard protocols. After 24 hours incubation, cells were selected with puromycin (Invivogen, 1 µg/mL) for 48 hours. Cells were stained for total CD47 and pE-CD47 and QPCTL k.o. cells were sorted out as negative for pE-CD47, and CD47 k.o. cells as negative for total CD47, using a FACSAria III and FACS Diva software (BD Biosciences).
In order to test compounds for their effect on pyroglutamylation in live cells, 25000 KBM7 cells per well were seeded in a 96-well U-bottom plate in 150 µl IMDM / 10% FCS / 1% Pen / Strep medium and a 10-point 2-fold dilution range of test compounds. After 72 hours incubation at 37°C, 5% COz, cells were stained for total CD47 and pE-CD47 and analysed on a BD Celesta using FACS Diva software (BD Biosciences). Cells gated for DAPI negativity were recorded and the median fluorescence intensity (MFI) of each sample was transformed to linearly scale between the MFI's of wildtype and CD47 knockout cells (in case of the 2D3 antibody) and the wildtype and QPCTL knockout cells (in case of the CC2C6 antibody). ICso's were calculated by 3 parameter logistic regression of the CC2C6 signal vs. compound concentration, where the top of the sigmoidal curve was fixed at 1, using R and the drc package (http://www.r-project.org, https://cran.r-project.org/web/packages/drc/index.html).

Usually CLint scaled stands for a measure of how fast metabolising enzymes remove a compound, apart from limits set by blood flow. A low value points to greater metabolic stability. The term Papp A→B denotes how fast a substance crosses the layer from the apical side. Broadly, the Papp B→A is how fast a substance crosses the layer from the basolateral side. A word on the IC50: it is the concentration needed to halve the response being measured. Low readings indicate higher potency, high ones lower potency.

Molecules are shown by their SMILES. Where only a bound is given, the exact number is not on record here.

In data set [1], `O=C1OCC(c2ccc(N3CCCC3)cc2)N1c1ccc2[nH]cnc2c1` (single isomer, unassigned) [(18)-ent2] registered a CLint scaled at 1 µM of 73.8 mL/min/kg. In data set [2], this compound displayed a Papp A→B at 2 h, 2 µM of 2.8 ×10⁻⁶ cm/s and a Papp B→A at 2 h, 2 µM of 18.8 ×10⁻⁶ cm/s. The compound also displayed a CLint scaled at 1 µM in data set [3] of 488 mL/min/kg. The compound further returned an IC50 in the data set on pyroglutamylated CD47 of 3490 nM.
For the compound `O=C1OC[C@H](c2ccc(-c3cnn(C(F)(F)F)c3)cc2F)N1c1ccc2[nH]cnc2c1` [Compound (1)], the CLint scaled at 1 µM was < 8.6 mL/min/kg in data set [1] and 67.5 mL/min/kg in data set [3]. Also, the Papp A→B at 2 h, 2 µM in data set [2] turned out to be 2 ×10⁻⁶ cm/s. The same compound came in with a Papp B→A at 2 h, 2 µM in data set [2] of 21.9 ×10⁻⁶ cm/s. Inhibition in the data set with pyroglutamylated CD47 (Homo sapiens, KBM-7, 72 h) was half-maximal at 92.1 nM (IC50).
`O=C1OCC(c2ccc(C3CCC(F)(F)CC3)cc2)N1c1ccc2[nH]cnc2c1` (single isomer, unassigned) [(19)-ent2]: the intrinsic metabolic clearance (CLint scaled) at 1 µM in data set [1] is 19.7 mL/min/kg. In data set [2], this compound returned a Papp A→B at 2 h, 2 µM of 3.9 ×10⁻⁶ cm/s and a Papp B→A at 2 h, 2 µM of 23.9 ×10⁻⁶ cm/s. Further, the CLint scaled at 1 µM in data set [3] is 339 mL/min/kg. The compound further returned a half-inhibitory concentration (IC50) in the data set on pyroglutamylated CD47 of 3730 nM.
